Like-named read-outs stand apart in the source and are kept apart here.
How the values were obtained:
[1] = test system: adjuvant-induced arthritis in rats; test: Established Adjuvant-Induced Arthritis in Rats; assay type: in vivo, Lewis (Wistar) male rats; conditions: for ED50: 504 h, read-out: Adjuvant Arthritis ED50
[2] = test system: phenylquinone-induced writhing in mice; test: Phenylquinone Writhing Test; assay type: in vivo, female white mice; conditions: mouse; oral; effective analgesic dose for 50% of the mice; observed 10 minutes from 30 minutes after dosing
Description: Phenylquinone Writhing Test
The phenylquinone writhing test, modified from Siegmund, et al., Proc. Soc. […] A test compound suspended in 1% methylcellulose was given orally to fasted (17-21 hours) female white mice, 5-20 animals per double blind test. Aqueous (0.01% phenyl-p-benzoquinone) phenylquinone was injected intraperitoneally at 24 minutes later using 0.20 ml per mouse.

[3] = rat, oral gavage once daily for 7 days (days 14-20), ED50% for decrease from control paw volume, estimated by inspection, day 21
[4] = 168 h, rat, oral once daily for 7 days, read-out: percent reduction in paw volume at the indicated dose

| SMILES | ED50 [2] | ED50 [1, 3] | other results |
| --- | --- | --- | --- |
| OC(c1cc(-c2ccc(Cl)cc2)c(-c2ccc(Cl)cc2)[nH]1)(C(F)(F)F)C(F)(F)F [Example 1, 4,5-Bis(4-chlorophenyl)-α,α-bis(trifluoromethyl)-1H-pyrrole-2-methanol] | > 108 mg/kg | – | ED50 ([1]; Rattus norvegicus, po): 7 mg/kg |
| OC(c1cc(-c2ccccc2)c(-c2ccccc2)[nH]1)(C(F)(F)F)C(F)(F)F [Example 2] | 135 mg/kg | – | inhibition in vivo at 81 mg/kg ([1]; 168 h, rat, oral once daily for 7 days, dose 81 mg/kg, read-out: percent reduction in paw volume at the indicated dose): 42% |
| OC(c1cc(-c2ccc(F)cc2)c(-c2ccc(F)cc2)[nH]1)(C(F)(F)F)C(F)(F)F [Example 3, 4,5-bis(4-fluorophenyl)-α,α-bis(trifluoromethyl)-1H-pyrrole-2-methanol] | > 108 mg/kg | 3.5 mg/kg | – |
| OC(c1cc(-c2ccccc2)c(-c2ccc(Cl)c(Cl)c2)[nH]1)(C(F)(F)F)C(F)(F)F [Example 4] | > 108 mg/kg | 70 mg/kg | – |
| OC(c1cc(-c2ccc(F)cc2)c(-c2ccc(Br)cc2)[nH]1)(C(F)(F)F)C(F)(F)F [Example 5] | > 135 mg/kg | 6 mg/kg | – |
| Cc1c(C(O)(C(F)(F)F)C(F)(F)F)[nH]c(-c2ccc(F)cc2)c1-c1ccc(F)cc1 [Example 6] | > 135 mg/kg | 2.8 mg/kg | – |
| OC(c1cc(-c2ccccc2)c(-c2cccnc2)[nH]1)(C(F)(F)F)C(F)(F)F [Example 7] | 78 mg/kg | – | inhibition in vivo at 18 mg/kg ([1]; 168 h, rat, oral once daily for 7 days, dose 18 mg/kg, read-out: percent reduction in paw volume at the indicated dose): 31% |
| COc1ccc(-c2cc(C(O)(C(F)(F)F)C(F)(F)F)[nH]c2-c2ccc(OC)cc2)cc1 [Example 8] | 5.2 mg/kg | 4 mg/kg | – |
| Cc1ccc(-c2cc(C(O)(C(F)(F)F)C(F)(F)F)[nH]c2-c2ccc(C)cc2)cc1 [Example 9] | > 108 mg/kg | 8 mg/kg | – |
| CN(C)c1ccc(-c2[nH]c(C(O)(C(F)(F)F)C(F)(F)F)cc2-c2ccc(F)cc2)cc1 [Example 10, 4-(4-fluorophenyl)-5-(4-dimethylaminophenyl)-α,α-bis(trifluoromethyl)-1H-pyrrole-2-methanol] | > 108 mg/kg | 2.2 mg/kg | – |
| OC(c1cc(-c2ccc(F)cc2)c(-c2cccnc2)[nH]1)(C(F)(F)F)C(F)(F)F [Example 11] | > 108 mg/kg | – | inhibition in vivo at 15 mg/kg ([1]; 168 h, rat, oral once daily for 7 days, dose 15 mg/kg, read-out: percent reduction in paw volume at the indicated dose): 47% |
| CSc1ccc(-c2[nH]c(C(O)(C(F)(F)F)C(F)(F)F)cc2-c2ccc(F)cc2)cc1 [Example 12] | > 108 mg/kg | 9 mg/kg | – |
| CS(=O)(=O)c1ccc(-c2[nH]c(C(O)(C(F)(F)F)C(F)(F)F)cc2-c2ccc(F)cc2)cc1 [Example 13] | > 108 mg/kg | – | inhibition in vivo at 27 mg/kg [1, 4]: 22% |
| OC1(c2cc(-c3ccc(F)cc3)c(-c3ccc(F)cc3)[nH]2)C(F)(F)C(F)(F)C1(F)F [Example 16] | > 108 mg/kg | – | ED50 ([1]; Rattus norvegicus, po): 1.3 mg/kg |
| OC(c1cc(-c2ccc(F)cc2)c(-c2ccc(F)cc2)[nH]1)(C(F)(F)Cl)C(F)(F)Cl [Example 17] | > 108 mg/kg | 6.5 mg/kg | – |
| OC(c1cc(-c2ccc(F)cc2)c(-c2ccc(F)cc2)[nH]1)(C(F)F)C(F)(F)F (centres unmarked) [Example 18] | > 108 mg/kg | 4 mg/kg | – |
| OC(c1cc(-c2ccc(F)cc2)c(-c2ccc(F)cc2)[nH]1)(C(F)(F)F)C(F)(F)Cl (centres unmarked) [Example 19] | > 108 mg/kg | 2 mg/kg | – |

| SMILES | ED50 [2] | ED50 [1, 3] | other results |
| --- | --- | --- | --- |
| OC1(c2cc(-c3ccc(F)cc3)c(-c3ccc(F)cc3)[nH]2)C(F)(F)C(F)(F)C1(F)Cl (centres unmarked) [Example 20] | > 108 mg/kg | 4.5 mg/kg | – |
| OC1(c2cc(-c3ccc(F)cc3)c(-c3ccc(F)cc3)[nH]2)C(F)(F)C(F)(F)C1(F)Br (centres unmarked) [Example 21] | > 108 mg/kg | 20 mg/kg | – |
| OC(c1cc(-c2ccc(F)cc2)c(-c2ccc(F)cc2)[nH]1)(C(F)(F)Cl)C(F)(Cl)Cl (centres unmarked) [Example 22] | > 108 mg/kg | – | ED50 ([1]; Rattus norvegicus, po): 7 mg/kg |
| Cn1c(C(O)(C(F)(F)F)C(F)(F)F)cc(-c2ccc(F)cc2)c1-c1ccc(F)cc1 [Example 28, 4,5-Bis(4-fluorophenyl)-1-methyl-α,α-bis(trifluoromethyl)-1H-pyrrole-2-methanol] | 45 mg/kg | 0.66 mg/kg | – |
| OC(c1cc(-c2ccc(F)cc2)c(-c2ccc(F)cc2)[nH]1)C(F)(F)F (stereo not drawn) [Example 29, 4,5-Bis(4-fluorophenyl)-α-(trifluoromethyl)-1H-pyrrole-2-methanol] | > 108 mg/kg | 11 mg/kg | – |
| COc1ccc(-c2cc(C(O)C(F)(F)F)[nH]c2-c2ccc(OC)cc2)cc1 (stereo not drawn) [Example 30, 4,5-Bis(4-methoxyphenyl)-α-(trifluoromethyl)-1H-pyrrole-2-methanol] | 13.4 mg/kg | 5.5 mg/kg | – |
| COc1ccc(-c2cc(C(C)(O)C(F)(F)F)[nH]c2-c2ccc(OC)cc2)cc1 (stereo not drawn) [Example 31, 4,5-Bis(4-methoxyphenyl)-α-methyl-α-(trifluoromethyl)-1H-pyrrole-2-methanol] | 23 mg/kg | 1.25 mg/kg | – |
| COC(c1cc(-c2ccc(F)cc2)c(-c2ccc(F)cc2)n1C)(C(F)(F)F)C(F)(F)F [Example 32, 2,3-Bis(4-fluorophenyl)-1-methyl-5-[2,2,2-trifluoro-1-methoxy-1-(trifluoromethyl)ethyl]-1H-pyrrole] | > 108 mg/kg | 5.5 mg/kg | – |
| Fc1ccc(-c2cc(C(OCc3ccccc3)(C(F)(F)F)C(F)(F)F)[nH]c2-c2ccc(F)cc2)cc1 [Example 33, 2,3-Bis(4-fluorophenyl)-5-[2,2,2-trifluoro-1-(phenylmethoxy)-1-(trifluoromethyl)ethyl]-1H-pyrrole] | – | – | inhibition in vivo at 25 mg/kg [1, 4]: 35% |
| CC(=O)OC(c1cc(-c2ccc(F)cc2)c(-c2ccc(F)cc2)n1C)(C(F)(F)F)C(F)(F)F [Example 34, 4,5-Bis(4-fluorophenyl)-1-methyl-α,α-bis(trifluoromethyl)-1H-pyrrole-2-methanol, Acetate] | > 108 mg/kg | 2.5 mg/kg | – |
| Cn1c(C(OC(=O)c2ccccc2)(C(F)(F)F)C(F)(F)F)cc(-c2ccc(F)cc2)c1-c1ccc(F)cc1 [Example 35, 4,5-Bis(4-fluorophenyl)-1-methyl-α,α-bis(trifluoromethyl)-1H-pyrrole-2-methanol, Benzoate] | > 108 mg/kg | – | inhibition in vivo at 27 mg/kg [1, 4]: 22% |
| COC(=O)OC(c1cc(-c2ccc(F)cc2)c(-c2ccc(F)cc2)n1C)(C(F)(F)F)C(F)(F)F [Example 36, 4,5-Bis(4-fluorophenyl)-1-methyl-α,α-bis(trifluoromethyl)-1H-pyrrole-2-methanol, Methylcarbonate] | > 108 mg/kg | – | inhibition in vivo at 25 mg/kg [1, 4]: 46% |
| OC(c1cc(-c2ccc(F)cc2)c(-c2ccc(F)cc2)[nH]1)C(F)(F)C(F)(F)F (centres unmarked) [Example 37] | 103 mg/kg | 2.9 mg/kg | – |
| CC(O)(c1cc(-c2ccc(F)cc2)c(-c2ccc(F)cc2)[nH]1)C(F)(F)C(F)(F)F (centres unmarked) [Example 38] | > 108 mg/kg | 3.1 mg/kg | – |
| OC(c1cc(-c2ccc(F)cc2)c(-c2ccc(F)cc2)[nH]1)C(F)(F)C(F)(F)C(F)(F)F (centres unmarked) [Example 49] | > 108 mg/kg | – | ED50 ([1]; Rattus norvegicus, po): 7 mg/kg |
| CC(O)(c1cc(-c2ccc(F)cc2)c(-c2ccc(F)cc2)[nH]1)C(F)(F)F (centres unmarked) [Example 50] | > 108 mg/kg | – | inhibition in vivo at 9 mg/kg ([1]; 168 h, rat, oral once daily for 7 days, dose 9 mg/kg, read-out: percent reduction in paw volume at the indicated dose): 47% |

Source: patent US4495196A, “Antiinflammatory 4,5-diaryl-α-polyfluoroalkyl-1H-pyrrole-2-methanols and method for use thereof” (E. I. Du Pont de Nemours and Company, priority 1981, dated 1985)
